Assay results taken from PubChem BioAssay (NCI).
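A five-concentration, 48-hour dose response in 96-well plates underlies each endpoint, interpolated linearly between surrounding concentrations. The concentration for 50% growth inhibition is given as GI50. TGI: concentration producing complete growth inhibition.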

Tests used:
Assay in all cases: NCI tumour cell line growth inhibition, 48 h
[1] = system: HOP-92 NSCLC
[2] = system: IGROV1 ovarian
[3] = system: K-562 leukemia
[4] = system: M14 melanoma
[5] = system: MDA-MB-231 breast
[6] = system: MOLT-4 leukemia
[7] = system: SK-OV-3 ovarian
[8] = system: SNB-75 CNS
[9] = system: T-47D breast
[10] = system: UACC-62 melanoma

Compound	GI50 [1]	TGI [1]	GI50 [2]	TGI [2]	GI50 [3]	TGI [3]	GI50 [4]	TGI [4]	GI50 [5]	TGI [5]	GI50 [6]	TGI [6]	GI50 [7]	TGI [7]	GI50 [8]	TGI [8]	GI50 [9]	TGI [9]	GI50 [10]	TGI [10]
O=C(Nc1n[nH]c2cc(-c3cc(F)ccc3F)ccc12)C1CC1	> 25 µM	> 25 µM	> 25 µM	> 25 µM	7.47 µM	> 25 µM	13.8 µM	> 25 µM	19.5 µM	> 25 µM	14.3 µM	> 25 µM	11.1 µM	> 25 µM	> 15.8 µM	> 25 µM	11.8 µM	> 25 µM	19.5 µM	> 25 µM
N=C1CCCC1C(=S)SCCC(N)=O (configuration not stated)	–	> 100 µM	–	> 100 µM	–	–	–	> 100 µM	–	> 100 µM	–	> 100 µM	–	> 100 µM	–	> 100 µM	–	> 100 µM	–	> 100 µM
Cn1c(I)c(C#C[Si](C)(C)C)c(=O)n(C(=O)c2ccccc2)c1=O	2.6 µM	13.6 µM	1.74 µM	3.45 µM	–	–	1.99 µM	4.16 µM	5.22 µM	11.8 µM	1.25 µM	> 21.9 µM	0.529 µM	21.7 µM	4.2 µM	20.5 µM	2.03 µM	5.91 µM	4.51 µM	17 µM
CC1=NN(c2cccc(Cl)c2)C(=O)/C1=C\c1cn(CC(O)CN2CCCCC2)c2ccccc12 (configuration not stated)	14.8 µM	38 µM	2.99 µM	14.6 µM	3.29 µM	39.4 µM	1.75 µM	3.29 µM	3.32 µM	15.8 µM	4.76 µM	28.8 µM	12.9 µM	26.6 µM	7.75 µM	21.1 µM	15.8 µM	36.2 µM	2.17 µM	4.9 µM
N#C/C(=C\c1ccc2[nH]ccc2c1)C(=O)NCCCCNC(=O)/C(C#N)=C/c1ccc2[nH]ccc2c1	–	> 31.6 µM	–	> 31.6 µM	–	> 31.6 µM	–	> 31.6 µM	–	> 10 µM	–	> 31.6 µM	–	> 31.6 µM	–	> 31.6 µM	–	> 10 µM	–	> 31.6 µM
O=C(Nc1sc2c(c1C(=O)O)CCCC2)c1ccco1	> 50 µM	> 50 µM	> 50 µM	> 50 µM	23.9 µM	> 50 µM	> 50 µM	> 50 µM	> 50 µM	> 50 µM	> 50 µM	> 50 µM	> 50 µM	> 50 µM	> 50 µM	> 50 µM	> 50 µM	> 50 µM	> 50 µM	> 50 µM
CCOC(=O)Nc1ccc2nc(-c3cscn3)[nH]c2c1	> 26.2 µM	> 100 µM	6.3 µM	> 100 µM	0.942 µM	> 100 µM	2.86 µM	> 100 µM	7.81 µM	> 100 µM	5.31 µM	> 100 µM	3.61 µM	29.8 µM	2.84 µM	29.4 µM	5.32 µM	> 100 µM	4.08 µM	> 100 µM
NC(N)=N/N=C\c1ccc(OCc2ccccc2)cc1	1.05 µM	4.24 µM	3.42 µM	18.3 µM	2.65 µM	5.91 µM	–	–	1.96 µM	5.12 µM	3.36 µM	9.36 µM	3.47 µM	14.7 µM	1.64 µM	4.7 µM	1.45 µM	4.22 µM	1.57 µM	3.4 µM
CC(C)C[C@@H](N)[C@@H](O)C(=O)N[C@H](C(=O)N[C@H](C(=O)N[C@@H](CC(=O)O)C(=O)O)C(C)C)C(C)C	10.3 µM	> 20 µM	> 20 µM	> 20 µM	> 20 µM	> 20 µM	> 20 µM	> 20 µM	> 20 µM	> 20 µM	> 20 µM	> 20 µM	> 20 µM	> 20 µM	> 20 µM	> 20 µM	> 20 µM	> 20 µM	> 20 µM	> 20 µM
CN(C)CCC(=O)Nc1ccc(-n2cc(-c3cccc(NC(=S)Nc4cccc(-c5cn(-c6ccc(NC(=O)CCN(C)C)cc6)nn5)c4)c3)nn2)cc1	19.5 µM	53.9 µM	–	–	4.49 µM	> 100 µM	49.5 µM	> 100 µM	27.2 µM	58.5 µM	20.7 µM	84.6 µM	> 100 µM	> 100 µM	25.6 µM	65.6 µM	34.1 µM	> 100 µM	33.3 µM	98.8 µM
O=C1c2cccc3cccc(c23)C(=O)N1CCCCCN1CCN(CCN=c2cc3n(-c4ccc(Cl)cc4)c4ccccc4nc-3cc2Nc2ccc(Cl)cc2)CC1	7.32 µM	19.7 µM	–	–	6.92 µM	33.3 µM	7.53 µM	16.5 µM	5.82 µM	30.3 µM	–	–	> 50 µM	> 50 µM	14.5 µM	39.6 µM	32.8 µM	> 50 µM	7.5 µM	20.5 µM
Nc1cc2c3c(cccc3c1)C(=O)N(CCN1CCCC1)C2=O	2.94 µM	> 54.4 µM	1.33 µM	> 100 µM	3.75 µM	> 37.6 µM	3.92 µM	21.7 µM	4.95 µM	40.7 µM	1.74 µM	> 46.4 µM	2.16 µM	22.7 µM	3.4 µM	17 µM	1.93 µM	9.36 µM	2.47 µM	9.99 µM
CCCC(=O)O[C@]1(C)CC[C@@H]2[C@H]3[C@@H]1[C@@H]1C[C@@](C)(O)[C@H](OC)CC[C@](C)(OC(=O)[C@@H]2C)[C@H]3O1	17.6 µM	31.4 µM	24.9 µM	62 µM	14.4 µM	27.5 µM	28.9 µM	> 100 µM	28.9 µM	77.6 µM	23.5 µM	52 µM	31 µM	97.1 µM	16.3 µM	39.2 µM	21.6 µM	44.5 µM	–	–
Clc1ccccc1C(Nc1cnccn1)Nc1cnccn1	–	> 100 µM	–	> 100 µM	–	> 100 µM	–	> 100 µM	–	> 100 µM	–	> 100 µM	–	> 100 µM	–	> 100 µM	–	> 100 µM	–	> 100 µM
Oc1ccc(Cl)cc1C=Nc1cnc2ccccc2c1	–	> 100 µM	–	> 100 µM	–	> 100 µM	–	> 100 µM	–	> 85.7 µM	–	47.2 µM	–	> 100 µM	–	> 87.6 µM	–	51.3 µM	–	> 100 µM
C=C1C(=O)O[C@@H]2/C=C(/C)[C@@H](OC(C)=O)C/C=C(\C)C(O)[C@@H](OC(=O)/C(C)=C\C)C12 (some centres not stated)	–	50.3 µM	–	> 100 µM	–	73.3 µM	–	> 100 µM	–	39.2 µM	–	74.6 µM	–	> 100 µM	–	> 100 µM	–	39.7 µM	–	88.4 µM
COc1ccc(-c2ccc(OC)c(OC)c2OC)cc1	1.32 µM	63 µM	4.08 µM	> 100 µM	0.431 µM	> 100 µM	0.817 µM	> 77.8 µM	3.21 µM	> 74.5 µM	2.39 µM	> 100 µM	2.63 µM	62 µM	3.34 µM	> 100 µM	5.87 µM	> 100 µM	3.29 µM	> 100 µM
CC1CCC2C(C)C(=O)OC2C2(C)C(=O)C=CC12 (configuration not stated)	–	> 10 µM	–	> 10 µM	–	> 10 µM	–	> 10 µM	–	> 10 µM	–	> 10 µM	–	> 10 µM	–	> 10 µM	–	> 10 µM	–	> 10 µM
Cc1cccc(C2NC(=O)c3ccccc3N2)c1 (configuration not stated)	–	> 100 µM	–	> 100 µM	–	–	–	> 54.8 µM	–	> 87.6 µM	–	> 23.9 µM	–	> 44.6 µM	–	> 100 µM	–	> 100 µM	–	> 100 µM
O=S(=O)(NC1=NCCN1C(=S)SN1CCn2c1nsc2=S)c1ccc(Cl)cc1	11.4 µM	25.2 µM	10.2 µM	23.4 µM	5.21 µM	> 100 µM	12.9 µM	32.5 µM	4.06 µM	19.4 µM	3.56 µM	21.7 µM	–	–	12.3 µM	35.6 µM	5.38 µM	23.3 µM	3.68 µM	13.6 µM
O=C(Nc1ccc(Cl)cc1C(F)(F)F)C(=O)Nn1c(=S)[nH]c2ccccc2c1=O	–	> 100 µM	–	–	–	> 100 µM	–	> 100 µM	–	> 100 µM	–	> 100 µM	–	> 100 µM	–	> 100 µM	–	> 100 µM	–	> 100 µM
NCCO/C=C/C(N)C(=O)O (configuration not stated)	–	> 100 µM	–	> 100 µM	–	> 100 µM	–	> 100 µM	–	> 100 µM	–	–	–	> 100 µM	–	> 100 µM	–	> 100 µM	–	> 100 µM
